# Assay results taken from US20230121313A1 (priority 2019, published 2023).
# Key:
# [1] = test system: subjects with MDD at imminent risk for suicide; conditions: human, in vivo, other: intranasal, 84 mg
# Protocol: Transient blood pressure increases peaked for the esketamine group at approximately 40 minutes post dose with the maximum mean increases (across all dosing days) in systolic BP being 8.7 in the placebo group and 16.7 in the esketamine 84 mg group. The maximum mean increases (across all dosing days) in diastolic BP were 7.6 in the placebo group and 11.9 in the esketamine 84 mg group. […] See, FIGS. 46 and 47.
# [2] = test system: patients with treatment-resistant depression (TRD); test: Vital signs (blood pressure, heart rate), phase 2 dose-response study in TRD; assay type: in vivo, human
# [3] = Protocol: This example provides an LC-MS/MS method for the determination of ketamine and norketamine in sodium heparin human plasma using ketamine-d4 and norketamine-d4 as the respective internal standards (IS).
# Retention time and peak area were determined by Analyst® Data Acquisition/Processing Software (Version 1.4.2). Analyte concentrations were obtained from a calibration curve constructed by plotting the peak area ratio versus the concentration using Watson LIMS (Version 7.3). Watson LIMS and Microsoft Office Excel were used for statistical calculations. When Office Excel was used the calculations were 100% audited. Concentrations were calculated using linear regression according to the following equation: […]
# Selectivity is defined as the ability of a chromatographic method to measure a response from the analyte without interference from the biological matrix. This was accomplished by evaluating six individual lots of human plasma prepared as blank and at the lower limit of quantitation (LLOQ, 0.500 ng/mL).
# The matrix effect is defined as the suppression or enhancement of ionization of analytes by the presence of matrix components in the biological samples. See, e.g., C. T. Viswanathan, “Quantitative Bioanalytical Methods Validation and Implementation: Best Practices for Chromatographic and Ligand Binding Assays,” Pharmaceutical Research, Vol. 24, No. 10, October 2007, p. 1969. The matrix effect was evaluated by extracting single replicates of six lots of blank human plasma and spiking each lot at the Low and High QC concentration levels (1.50 ng/mL and 375 ng/mL) post extraction. The area ratios of the six lots of post-extraction spiked plasma samples were compared to the mean area ratio obtained from three replicates of the neat solution prepared at the same concentration level in purified water.
# The linearity of the method was evaluated at a linear range of 0.500/0.500-500/500 ng/mL for ketamine/norketamine in human plasma. Linear regression (with a weighting factor of 1/x2) was used to produce the best fit for the concentration-detector response relationship for ketamine and norketamine in human plasma.
# The validation was conducted with a target LLOQ of 0.500 ng/mL for ketamine and norketamine in human plasma. To evaluate the sensitivity, six QC samples prepared at the LLOQ were analyzed during three individual batch runs as part of the intra-run and inter-run accuracy and precision for the method. The concentrations were calculated with the calibration curve.
# The intra-run and inter-run accuracy and precision of the method were investigated at four different QC concentration levels (0.500 ng/mL (LLOQ), 1.50 ng/mL, 80.0 ng/mL, and 375 ng/mL).
# Recoveries were calculated according to the following formula: […]
# To assess the reinjection reproducibility, an analyte batch containing a standard curve and QC samples was reinjected after being kept at room temperature for 161.5 hours.
# [4] = test system: elderly subjects with TRD; conditions: human, in vivo, other: intranasal
# Protocol: The Clinician Administered Dissociative States Scale (CADSS) was measured prior to the start of each dose, at 40 minutes, and 1.5 hours postdose.
# [5] = test system: elderly subjects with TRD; conditions: human, in vivo, other: intranasal; remark: listed apart in the source
# Source text: The Modified Observer's Assessment of Alertness/Sedation (MOAA/S) was used to measure treatment-emergent sedation with correlation to levels of sedation defined by the American Society of Anesthesiologists (ASA) continuum. The MOAA/S scores range from 0 (No response to painful stimulus; corresponds to ASA continuum for general anesthesia) to 5 (Readily responds to name spoken in normal tone [awake]; corresponds to ASA continuum for minimal sedation). The proportion of subjects with sedation was <4% for the esketamine group for each dosing day.
# [6] = test system: subjects with MDD at imminent risk for suicide; test: MADRS total score, Study […]2001 (change, sustained response, response, remission); assay type: in vivo, human; conditions: for MADRS total score change, Diff. of LS Means (minus Placebo): ANCOVA LOCF; for MADRS total score, change from baseline, mean / MADRS total score, change from baseline, median / MADRS total score, mean / MADRS total score, median: LOCF, ITT N = 35
# Source text: Primary efficacy variable/Primary Time point: Change from baseline (Day 1, predose) to Day 1, 4-hours postdose in MADRS total score. The MADRS consists of 10 items that cover all of the core depressive symptoms, with each item scoring from 0 (item is not present or is normal) to 6 (severe or continuous presence of the symptom). A higher score represents a more severe condition.
# • a. Changes from baseline to Day 2 and Day 25 for the MADRS total score • b. Changes from baseline to Day 1 4-hours postdose, Day 2 and Day 25 for the MADRS Suicide Item • c. Changes from baseline to Day 1 4-hours postdose, Day 2, and Day 25 for the clinical global judgment of suicide risk from the Suicide Ideation and Behavior Assessment Tool (SIBAT) • d. Sustained response (Onset of Clinical Response) defined as at least 50% reduction from baseline in MADRS total score with onset on Day 1 that is maintained through the end of the double-blind phase (Day 25) • e. Changes from baseline to Day 1 4-hours postdose, Day 2, and Day 25 for the Beck Scale for Suicidal Ideation (BSS) • f. Changes from baseline to Day 1 4-hours postdose and Day 25 for the Beck Hopelessness Scale
# The primary efficacy endpoint is the change in MADRS total score from baseline to Day 1: 4-hours postdose. MADRS total scores range from 0 to 60. […] As this is a phase 2a proof-of-concept study, statistical significance is based on a two-sided alpha level of 0.20. All p-values presented in this document are two-sided.
# Sustained response is defined as at least 50% reduction from baseline in MADRS total score with onset on Day 1: 4 hours postdose that is maintained through the end of the double-blind phase (Day 25). Four subjects in the esketamine 84 mg group and 2 subjects in the placebo group had sustained response throughout the double-blind phase.
smiles,measurement,setting,value
"CN[C@]1(c2ccccc2Cl)CCCCC1=O [esketamine, (S)-2-(2-chlorophenyl)-2-(methylamino)cyclohexanone]",Blood pressure returning to normal range by (post dose),[1],≤ 2 h
same,Maximum mean increase in diastolic BP (across all dosing days),[1]; 40 minutes,11.9
same,Maximum mean increase in systolic BP (across all dosing days),[1]; 40 minutes,16.7
same,Diastolic blood pressure: maximum mean change on dosing days,[2],10.3 mmHg
same,Elevated blood pressure returned to the normal range by (post-dose),[2],≤ 2 h
same,Heart rate: maximum mean change on dosing days,[2],9.4 bpm
same,Systolic blood pressure: maximum mean change on dosing days,[2],19.0 mmHg
same,Maximum diastolic blood pressure value,[2]; 10 or 40 minutes post-dose,115 mmHg
same,Maximum systolic blood pressure value,[2]; 10 or 40 minutes post-dose,199 mmHg
same,QC sample freeze/thaw stability,[3]; freeze (−20° C.)/thaw (room temperature),3 freeze (−20° C.)/thaw (room temperature) cycles
same,QC sample long-term storage stability,[3]; human plasma QC sample at −20° C.,707 days at −20 °C
same,QC sample bench-top stability,"[3]; human plasma QC sample, room temperature",18 hours at room temperature
same,CADSS dissociative and perceptual change symptoms resolved by (postdose),[4],≤ 1.5 h
same,Proportion of subjects with sedation (post dose MOAA/S score ≤3),[5],< 4%
same,"MADRS total score change, Diff. of LS Means (minus Placebo)","[6]; 84 mg, Day 1 (DB): 4 H",−5.3
same,"MADRS total score, change from baseline, mean","[6]; 84 mg, Day 1 (DB): 4 H",−13.4
same,"MADRS total score, change from baseline, median","[6]; 84 mg, Day 1 (DB): 4 H",−14.0
same,"MADRS total score, mean","[6]; 84 mg, Day 1 (DB): 4 H",25.1
same,"MADRS total score, median","[6]; 84 mg, Day 1 (DB): 4 H",23.0
same,"MADRS total score change, Diff. of LS Means (minus Placebo)","[6]; 84 mg, Day 2 (DB)",−7.2
same,"MADRS total score, change from baseline, mean","[6]; 84 mg, Day 2 (DB)",−19.3
same,"MADRS total score, change from baseline, median","[6]; 84 mg, Day 2 (DB)",−19.0
same,"MADRS total score, mean","[6]; 84 mg, Day 2 (DB)",19.2
same,"MADRS total score, median","[6]; 84 mg, Day 2 (DB)",18.0
same,"MADRS total score change, Diff. of LS Means (minus Placebo)","[6]; 84 mg, End Point (DB)",−4.5
same,"MADRS total score, change from baseline, mean","[6]; 84 mg, End Point (DB)",−26.4
same,"MADRS total score, change from baseline, median","[6]; 84 mg, End Point (DB)",−25.0
same,"MADRS total score, mean","[6]; 84 mg, End Point (DB)",12.1
same,"MADRS total score, median","[6]; 84 mg, End Point (DB)",8.0
same,"Day 25 sustained response based on MADRS total score: No, subjects (%)","[6]; 84 mg, ITT",88.2%
same,"Day 25 sustained response based on MADRS total score: Yes, subjects (%)","[6]; 84 mg, at least 50 percent reduction with onset on Day 1 maintained through Day 25, ITT",11.8%
same,Subjects with sustained response (≥50% MADRS reduction from Day 1 4 h through Day 25),"[6]; […]2001, 84 mg",Four
same,MADRS total score: mean change from baseline (SD),"[6]; […]2001, 84 mg, Day 1: 4-hours postdose",−13.4 (9.03)
same,MADRS total score: mean change from baseline (SD),"[6]; […]2001, 84 mg, Day 2 (DB)",−19.3 (12.02)
same,MADRS total score: mean change from baseline (SD),"[6]; […]2001, 84 mg, End Point (DB)",−26.4 (14.52)
same,Subjects who discontinued due to lack of efficacy,"[6]; […]2001, 84 mg, double-blind phase",1 subject
same,"MADRS total score: least-square mean difference (SE) from placebo, ANCOVA","[6]; […]2001, esketamine 84 mg, Day 1, 4-hours postdose",−5.3 (2.10)
